Measured values as given in patent US10604535B2, “Compounds, compositions and methods” (Denali Therapeutics Inc., priority 2016, dated 2020).
Like-named read-outs stand apart in the source and are kept apart here.

Legend:
GST-hRIPK1 (8-327) = GST-hRIPK1 (8-327) (Homo sapiens (Human), UniProt Q13546); test: Fluorescent Polarization Binding (FP Binding) assay
[1] = test system: FADD-deficient Jurkat cells; test: Cellular necroptosis assay (human TNFα-induced necrosis, CellTiter-Glo); format: cell-based; conditions: 48 h, read-out: Cell IC50
[2] = Homo sapiens, Jurkat, TNFα 10 ng/mL

Chain of GST-hRIPK1 (8-327) (Q13546 8-327): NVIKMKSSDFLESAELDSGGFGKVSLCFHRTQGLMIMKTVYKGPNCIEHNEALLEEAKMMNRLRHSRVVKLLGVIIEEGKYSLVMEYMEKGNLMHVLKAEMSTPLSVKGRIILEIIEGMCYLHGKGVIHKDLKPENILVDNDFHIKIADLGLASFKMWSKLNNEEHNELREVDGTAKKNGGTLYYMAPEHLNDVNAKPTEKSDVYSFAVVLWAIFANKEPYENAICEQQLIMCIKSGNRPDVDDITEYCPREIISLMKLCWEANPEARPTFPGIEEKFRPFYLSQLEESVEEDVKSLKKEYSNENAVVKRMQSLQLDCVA

SMILES | IC50 [1, 2] [nM] | also measured
CN1C(=O)[C@@H](NC(=O)c2nnc(C3(c4ccccc4)CC3)o2)CCc2nccnc21 [Example 180A, (S)—N-(5-methyl-6-oxo-6,7,8,9-tetrahydro-5H-pyrazino[2,3-b]azepin-7-yl)-5-(1-phenylcyclopropyl)-1,3,4-oxadiazole-2-carboxamide] | 0.1 to 1000 | IC50 (GST-hRIPK1 (8-327)): 0.1 to 1000 nM
CN1C(=O)[C@@H](NC(=O)c2nn(Cc3ccc(F)cc3)cc2F)COc2cccnc21 [Example 115, (S)-4-fluoro-1-(4-fluorobenzyl)-N-(5-methyl-4-oxo-2,3,4,5-tetrahydropyrido[3,2-b][1,4]oxazepin-3-yl)-1H-pyrazole-3-carboxamide] | 0.1 to 1000 | IC50 (GST-hRIPK1 (8-327)): 0.1 to 1000 nM
C[C@H]1Oc2cccnc2N(C)C(=O)[C@H]1NC(=O)c1nnc(C2(c3ccccc3)CC2)o1 [Example 138, N-((2R,3S)-2,5-dimethyl-4-oxo-2,3,4,5-tetrahydropyrido[3,2-b][1,4]oxazepin-3-yl)-5-(1-phenylcyclopropyl)-1,3,4-oxadiazole-2-carboxamide] | 0.1 to 1000 | IC50 (GST-hRIPK1 (8-327)): 0.1 to 1000 nM
C[C@H]1Oc2cccnc2N(C)C(=O)[C@H]1NC(=O)c1ncc(Cc2ccccc2)o1 [Example 192, 5-benzyl-N-((2R,3S)-2,5-dimethyl-4-oxo-2,3,4,5-tetrahydropyrido[3,2-b][1,4]oxazepin-3-yl)oxazole-2-carboxamide] | 0.1 to 1000 | IC50 (GST-hRIPK1 (8-327)): 0.1 to 1000 nM
CN1C(=O)[C@@H](NC(=O)c2nnc(Cc3ccccc3)[nH]2)COc2c(C#N)cccc21 [Example 56, (S)-5-benzyl-N-(9-cyano-5-methyl-4-oxo-2,3,4,5-tetrahydrobenzo[b][1,4]oxazepin-3-yl)-2H-1,2,4-triazole-3-carboxamide] | 0.1 to 1000 | IC50 (GST-hRIPK1 (8-327)): 0.1 to 1000 nM
CN1C(=O)[C@@H](NC(=O)c2cc(C#N)n(Cc3ccccc3)n2)COc2cccnc21 [Example 158, (S)-1-benzyl-5-cyano-N-(5-methyl-4-oxo-2,3,4,5-tetrahydropyrido[3,2-b][1,4]oxazepin-3-yl)-1H-pyrazole-3-carboxamide] | – | IC50 (GST-hRIPK1 (8-327)): 0.1 to 1000 nM; IC50 ([1]; Homo sapiens, Jurkat): 0.1 to 1000 nM
CN1C(=O)[C@@H](NC(=O)c2noc(Cc3ccccc3)n2)COc2cccnc21 [Example 215, (S)-5-benzyl-N-(5-methyl-4-oxo-2,3,4,5-tetrahydropyrido[3,2-b][1,4]oxazepin-3-yl)-1,2,4-oxadiazole-3-carboxamide] | 0.1 to 1000 | –
CN1C(=O)[C@@H](NC(=O)c2nn(Cc3ncccn3)cc2F)COc2ccccc21 [Example 224, (S)-4-fluoro-N-(5-methyl-4-oxo-2,3,4,5-tetrahydrobenzo[b][1,4]oxazepin-3-yl)-1-(pyrimidin-2-ylmethyl)-1H-pyrazole-3-carboxamide] | 0.1 to 1000 | –
CN1C(=O)[C@@H](NC(=O)c2nc3cccc(-c4ccccc4)c3s2)COc2ccccc21 [Example 84, (S)—N-(5-methyl-4-oxo-2,3,4,5-tetrahydrobenzo[b][1,4]oxazepin-3-yl)-7-phenylbenzo[d]thiazole-2-carboxamide] | 0.1 to 1000 | –
CN1C(=O)C(NC(=O)c2cc(Cc3ccccc3)on2)CC(F)c2ccccc21 (centres unmarked) [Example 2, 5-benzyl-N-(5-fluoro-1-methyl-2-oxo-2,3,4,5-tetrahydro-1H-benzo[b]azepin-3-yl)isoxazole-3-carboxamide] | 0.1 to 1000 | –
O=C(N[C@@H]1C(=O)Nc2c(F)cc(F)cc2[C@@H]2C[C@H]12)c1cn(Cc2ccccc2)nn1 [Example 90B, 1-benzyl-N-((1aS,2S,8bR)-5,7-difluoro-3-oxo-1,1a,2,3,4,8b-hexahydrobenzo[b]cyclopropa[d]azepin-2-yl)-1H-1,2,3-triazole-4-carboxamide] | 0.1 to 1000 | –
O=C(N[C@H]1COc2ccccc2-n2ccnc21)c1nnc(Cc2ccccc2)[nH]1 [Example 68A, (R)-5-benzyl-N-(4,5-dihydrobenzo[b]imidazo[1,2-d][1,4]oxazepin-4-yl)-4H-1,2,4-triazole-3-carboxamide] | 0.1 to 1000 | –
CN1C(=O)[C@@H](NC(=O)c2ncc(C3(c4ccccc4)CC3)s2)COc2cccnc21 [Example 63, (S)—N-(5-methyl-4-oxo-2,3,4,5-tetrahydropyrido[3,2-b][1,4]oxazepin-3-yl)-5-(1-phenylcyclopropyl)thiazole-2-carboxamide] | 0.1 to 1000 | –
CN1C(=O)[C@H](NC(=O)c2nnc(Cc3ccccc3)[nH]2)C[C@@H](F)c2ccccc21 (mixture of isomers) [Example 12B, 5-benzyl-N-((3S,5S)-5-fluoro-1-methyl-2-oxo-2,3,4,5-tetrahydro-1H-benzo[b]azepin-3-yl)-4H-1,2,4-triazole-3-carboxamide and 5-benzyl-N-((3R,5R)-5-fluoro-1-methyl-2-oxo-2,3,4,5-tetrahydro-1H-benzo[b]azepin-3-yl)-4H-1,2,4-triazole-3-carboxamide] | 0.1 to 1000 | –
CN1C(=O)[C@@H](NC(=O)c2ncc(C3(c4ccccc4)CC3)[nH]2)COc2ccccc21 [Example 78, (S)—N-(5-methyl-4-oxo-2,3,4,5-tetrahydrobenzo[b][1,4]oxazepin-3-yl)-5-(1-phenylcyclopropyl)-1H-imidazole-2-carboxamide] | 0.1 to 1000 | –
CN1C(=O)[C@H](NC(=O)c2nnc(Cc3ccccc3)[nH]2)C[C@H](F)c2ccccc21 (mixture of isomers) [Example 11B, 5-benzyl-N-((3S,5R)-5-fluoro-1-methyl-2-oxo-2,3,4,5-tetrahydro-1H-benzo[b]azepin-3-yl)-4H-1,2,4-triazole-3-carboxamide and 5-benzyl-N-((3R,5S)-5-fluoro-1-methyl-2-oxo-2,3,4,5-tetrahydro-1H-benzo[b]azepin-3-yl)-4H-1,2,4-triazole-3-carboxamide] | 0.1 to 1000 | –
CN1C(=O)[C@@H](NC(=O)c2nn(Cc3cocn3)cc2F)COc2cccnc21 [Example 209, (S)-4-fluoro-N-(5-methyl-4-oxo-2,3,4,5-tetrahydropyrido[3,2-b][1,4]oxazepin-3-yl)-1-(oxazol-4-ylmethyl)-1H-pyrazole-3-carboxamide] | 0.1 to 1000 | –
CN1C(=O)[C@@H](NC(=O)c2nn(Cc3ccccn3)cc2F)COc2cccnc21 [Example 74, (S)-4-fluoro-N-(5-methyl-4-oxo-2,3,4,5-tetrahydropyrido[3,2-b][1,4]oxazepin-3-yl)-1-(pyridin-2-ylmethyl)-1H-pyrazole-3-carboxamide] | 0.1 to 1000 | –
CN1C(=O)[C@@H](NC(=O)c2ncc(Cc3cccc(C#N)c3)s2)CCc2cccnc21 [Example 219, (S)-5-(3-cyanobenzyl)-N-(9-methyl-8-oxo-6,7,8,9-tetrahydro-5H-pyrido[2,3-b]azepin-7-yl)thiazole-2-carboxamide] | 0.1 to 1000 | –
CN1C(=O)[C@@H](NC(=O)c2cc(C3(c4ccccc4)CC3)[nH]n2)COc2cccnc21 [Example 73, (S)—N-(5-methyl-4-oxo-2,3,4,5-tetrahydropyrido[3,2-b][1,4]oxazepin-3-yl)-5-(1-phenylcyclopropyl)-1H-pyrazole-3-carboxamide] | 0.1 to 1000 | –
CN1C(=O)[C@@H](NC(=O)c2nn(Cc3ccccc3)cc2F)COc2ccccc21 [Example 64, (S)-1-benzyl-4-fluoro-N-(5-methyl-4-oxo-2,3,4,5-tetrahydrobenzo[b][1,4]oxazepin-3-yl)-1H-pyrazole-3-carboxamide] | 0.1 to 1000 | –
CN1C(=O)[C@@H](NC(=O)c2nnc(Cc3ccc(F)cc3)o2)[C@H]2C[C@H]2c2nccnc21 [Example 223, 5-(4-fluorobenzyl)-N-((7S,7aS,8aR)-5-methyl-6-oxo-5,6,7,7a,8,8a-hexahydrocyclopropa[d]pyrazino[2,3-b]azepin-7-yl)-1,3,4-oxadiazole-2-carboxamide] | 0.1 to 1000 | –
CN1C(=O)[C@@H](NC(=O)c2nnc([C@H]3CCc4ccccc43)[nH]2)COc2cccnc21 [Example 54B, 5-((S)-2,3-dihydro-1H-inden-1-yl)-N—((S)-5-methyl-4-oxo-2,3,4,5-tetrahydropyrido[3,2-b][1,4]oxazepin-3-yl)-4H-1,2,4-triazole-3-carboxamide] | – | IC50 ([1]; TNFα 10 ng/mL): 0.1 to 1000 nM
CN1C(=O)[C@@H](NC(=O)c2coc(C3(c4ccccc4)CC3)n2)COc2ccccc21 [Example 61, (S)—N-(5-methyl-4-oxo-2,3,4,5-tetrahydrobenzo[b][1,4]oxazepin-3-yl)-2-(1-phenylcyclopropyl)oxazole-4-carboxamide] | 0.1 to 1000 | –
CN1C(=O)[C@@H](NC(=O)c2cc(Cc3ccccc3)on2)[C@H]2C[C@H]2c2cccnc21 [Example 81A, 5-benzyl-N-((1aS,2S,8bR)-4-methyl-3-oxo-1,1a,2,3,4,8b-hexahydrocyclopropa[d]pyrido[2,3-b]azepin-2-yl)isoxazole-3-carboxamide] | 0.1 to 1000 | –
CN1C(=O)[C@@H](NC(=O)c2cc(Cc3ccccc3)[nH]n2)[C@H]2C[C@H]2c2cccnc21 [Example 80A, 5-benzyl-N-((1aS,2S,8bR)-4-methyl-3-oxo-1,1a,2,3,4,8b-hexahydrocyclopropa[d]pyrido[2,3-b]azepin-2-yl)-1H-pyrazole-3-carboxamide] | 0.1 to 1000 | –
COc1cccc(Cn2cc(F)c(C(=O)N[C@H]3COc4ccccc4N(C)C3=O)n2)n1 [Example 220, (S)-4-fluoro-1-((6-methoxypyridin-2-yl)methyl)-N-(5-methyl-4-oxo-2,3,4,5-tetrahydrobenzo[b][1,4]oxazepin-3-yl)-1H-pyrazole-3-carboxamide] | 0.1 to 1000 | –
CN1C(=O)[C@@H](NC(=O)c2nn(Cc3ccc(F)cn3)cc2F)COc2ccccc21 [Example 214, (S)-4-fluoro-1-((5-fluoropyridin-2-yl)methyl)-N-(5-methyl-4-oxo-2,3,4,5-tetrahydrobenzo[b][1,4]oxazepin-3-yl)-1H-pyrazole-3-carboxamide] | 0.1 to 1000 | –
[2H]C([2H])([2H])N1C(=O)[C@@H](NC(=O)c2nnc(C3(c4ccccc4)CC3)o2)COc2cccnc21 [Example 173, (S)—N-(5-trideuteriomethyl-4-oxo-2,3,4,5-tetrahydropyrido[3,2-b][1,4]oxazepin-3-yl)-5-(1-phenylcyclopropyl)-1,3,4-oxadiazole-2-carboxamide] | 0.1 to 1000 | –
